Marks after values point to notes of the source that are not given here.
Experiments:
[1] = tested on: MCF-7 cells; test: MCF-7 cell proliferation assay with IGF-1 (MTS); type: cell-based, human; settings: IGF-1 10 ng/mL, 24 hrs
Procedure: The human breast carcinoma cell line MCF-7 was obtained from ATCC (Manassas, VA) and grown in a sterile humidified environment at 37°C and 5% CO2: 95% air with complete DMEM media. The MCF-7 cells were plated in a 96 well plate at 30,000 cells/well at a confluency of 40%. The cells were serum starved for 24 h. At 22 h of serum starvation, the cells were treated with auraptene at 1 – 50 μM auraptene in DMSO (0.1%, v/v). The control cells received vehicle only (DMSO, 0.1% v/v). At 24 h of serum starvation, the cells were treated with IGF-1(10 ng/mL). After 24 hrs of IGF-1 treatment, the cells were treated with MTS [3-(4,5-dimethylthiazol-2-yl)-5-(3-carboxy methoxy phenyl)-2-(4-sulfophenyl)-2H-tetrazolium], for 2 h and the absorbance was measured at 490 nm.
Figure 2 Effects of auraptene on human breast carcinoma cells. (A) Effects of auraptene on MDA-MB-231 cell proliferation. Cells were serum starved for 5 h and then treated with 1–50 μM auraptene in 0.01% DMSO. Cell proliferation was assessed using the MTT reagent. Figures represent % vehicle control (means ± S.E.) # Replicates = 2 plates at 6 wells each for the treatment groups and 12 wells for the control group (* statistically different from control group, p < 0.05, One-way ANOVA, Tukey test). (B) Effects of auraptene on MCF-7 cell proliferation. Cells were serum starved for 24 h. […] Cell proliferation was assessed using the MTS reagent. […]

[2] = tested on: N-methyl nitrosourea (MNU) induced mammary carcinogenesis; test: MNU-induced rat mammary carcinogenesis study, dietary auraptene; type: in vivo, female Sprague-Dawley rats; settings: for Incidence (percentage of rats with tumor) / Multiplicity (average number of tumors per rat): means ± SE; for tumor burden: average tumor weight per rat / tumor burden: total tumor weights per rat: at necropsy
Procedure: A total of 128 female Sprague-Dawley rats (28 days of age), purchased from Harlan Teklad (Madison, WI), were used for this experiment. They were housed two per cage, in a temperature and humidity controlled AAALAC facility under 12 h light/dark cycle. All procedures were approved by LSUHSC Institutional Animal Care and Use Committee in accordance with NIH guidelines. They were fed test diets as described below and allowed access to food and water ad libitum.
Rats (28 days of age) were divided up randomly into groups of 24–26 each and were handled daily to get them accustomed to human touch. At 42 days of age the rats were shifted to the test diet. Control group and MNU only group were fed with Teklad (powdered diet) only. MNU/Auraptene 200 ppm group and MNU/Auraptene 500 ppm group received 200 ppm and 500 ppm of auraptene respectively, mixed in the diet for the duration of the study. The doses were selected from the pilot study conducted with a small number of animals. In addition to the 200 ppm dose of auraptene, which indicated the chemopreventive effect of auraptene, a higher dose of auraptene at 500 ppm was added to this study to see any increased chemopreventive effects. Auraptene has been administered in diet at 100 ppm and 500 ppm in other models of cancer. The diet was prepared once a week and stored in cold room. The food was replaced on Monday, Wednesday and Friday or as needed. […] At 50 days of age all the groups except the control group received intraperitoneal MNU injection (50 mg/kg bw in sterile acidified saline). The control group received vehicle only. The rats were palpated for tumors twice a week starting at 2 weeks after MNU administration. Any tumors felt during palpation were recorded by location. The rats were weighed once a week. A diet consumption analysis was done once to see if rats were consuming enough feed across all the groups and there was no significant difference in food consumption between the groups (data not shown). Any rats found to be moribund during the study were sacrificed within 24 h and necropsied. At 18 weeks after MNU administration, rats were euthanized by carbon dioxide asphyxiation and necropsied. The tumor location and weight of the tumor were marked in the necropsy sheet. Mammary fat pads and the tumors were collected in formalin, OCT compound and liquid nitrogen.
The rat body weight data was compared between groups by One-Way ANOVA followed by Tukey test. Groups were compared for the total number of tumors per rat by the nonparametric Kruskal-Wallis test. Time to tumor was estimated and compared among groups using survival curve analysis by the Log-rank test. The Cochran-Armitage test was used to test for trends in binomial response to different dose levels. Analysis was performed using StatXact (Cytel Software Corporation, Cambridge MA) and SPSS (SPSS Inc., Chicago IL). The cell proliferation assays and western blot data were analyzed by One-Way ANOVA followed by Tukey test.

[3] = Rat body weight and gross behavior in the tumor study; type: in vivo, female Sprague-Dawley rats
Description: Rats (28 days of age) were divided up randomly into groups of 24–26 each and were handled daily to get them accustomed to human touch. At 42 days of age the rats were shifted to the test diet. Control group and MNU only group were fed with Teklad (powdered diet) only. MNU/Auraptene 200 ppm group and MNU/Auraptene 500 ppm group received 200 ppm and 500 ppm of auraptene respectively, mixed in the diet for the duration of the study. The doses were selected from the pilot study conducted with a small number of animals. In addition to the 200 ppm dose of auraptene, which indicated the chemopreventive effect of auraptene, a higher dose of auraptene at 500 ppm was added to this study to see any increased chemopreventive effects. Auraptene has been administered in diet at 100 ppm and 500 ppm in other models of cancer. The diet was prepared once a week and stored in cold room. The food was replaced on Monday, Wednesday and Friday or as needed. […] At 50 days of age all the groups except the control group received intraperitoneal MNU injection (50 mg/kg bw in sterile acidified saline). The control group received vehicle only. […] Any tumors felt during palpation were recorded by location. […]
The rat body weight data was compared between groups by One-Way ANOVA followed by Tukey test. […] The cell proliferation assays and western blot data were analyzed by One-Way ANOVA followed by Tukey test.

[4] = 200 ppm in diet, 112 days (16 weeks) after MNU
[5] = 200 ppm in diet, 126 days (18 weeks) after MNU
[6] = 200 ppm in diet, 126 days (18 weeks) after MNU, listed as Aur.
[7] = 500 ppm in diet, 16 weeks, vs MNU only group
[8] = 500 ppm in diet, 112 days (16 weeks) after MNU
[9] = 500 ppm in diet, 126 days (18 weeks) after MNU
[10] = 500 ppm in diet, 126 days (18 weeks) after MNU, listed as Aur.

For `CC(C)=CCC/C(C)=C/COc1ccc2ccc(=O)oc2c1` [auraptene], the “suppression of MCF-7 cell proliferation” value ([1]; 20 μM auraptene) was 26%, the “suppression of MCF-7 cell proliferation” value ([1]; 50 μM auraptene) was 49% and the “Median time to tumor” value ([2]; 200 ppm in diet) was 91 days. The “first palpable tumor after MNU injection” value ([2]; 200 ppm in diet) was 38 days, the “Incidence (percentage of rats with tumor)” value [2, 4] was 76.9 ± 8.4% and the “Multiplicity (average number of tumors per rat)” value [2, 4] was 1.69 ± 0.27. For the same compound, the “Incidence (percentage of rats with tumor)” value [2, 5] was 81%, the “Multiplicity (average number of tumors per rat)” value [2, 5] was 2.08 and the “Incidence (percentage of rats with tumor)” value [2, 6] was 80.7 ± 7.8%. For the same compound, the “Multiplicity (average number of tumors per rat)” value [2, 6] was 2.08 ± 0.33, the “tumor burden: average tumor weight per rat” value ([2]; 200 ppm in diet) was 2.94 ± 0.79 grams and the “tumor burden: total tumor weights per rat” value ([2]; 200 ppm in diet) was 6.52 ± 1.49 grams. The “delay of median time to tumor” value ([2]; 200 ppm in diet, compared to MNU group) was 11 days, the “Median time to tumor” value ([2]; 500 ppm in diet) was 119 days and the “first palpable tumor after MNU injection” value ([2]; 500 ppm in diet) was 49 days. For the same compound, the “inhibition of tumor multiplicity” value [2, 7] was 37%, the “suppression of tumor incidence” value [2, 7] was 46% and the “Incidence (percentage of rats with tumor)” value [2, 8] was 45.8 ± 10.4^b %. For the same compound, the “Multiplicity (average number of tumors per rat)” value [2, 8] was 1.21 ± 0.35^c, the “Incidence (percentage of rats with tumor)” value [2, 9] was 67% and the “Multiplicity (average number of tumors per rat)” value [2, 9] was 2.0. For the same compound, the “Incidence (percentage of rats with tumor)” value [2, 10] was 66.7 ± 9.8%, the “Multiplicity (average number of tumors per rat)” value [2, 10] was 2.00 ± 0.43 and the “tumor burden: average tumor weight per rat” value ([2]; 500 ppm in diet) was 1.79 ± 0.54 grams. For the same compound, the “tumor burden: total tumor weights per rat” value ([2]; 500 ppm in diet) was 6.50 ± 2.10 grams, the “delay of median time to tumor” value ([2]; 500 ppm in diet, compared to MNU only group) was 39 days and the “total number of tumors in group” value ([2]; 500 ppm in diet, end of study, MNU only group had 65) was 48 tumors. For the same compound, the “Median time to tumor” value ([2]; 500 ppm in diet, listed as Aur.) was 119^d days, the “effect on rat body weight” value ([3]; 200 and 500 ppm in diet, MNU treated groups) was “did not significantly affect body weight” and the tolerability in rats ([3]; dietary auraptene up to 500 ppm, no observable change in gross behavior, no significant weight loss) was “well tolerated”.

Reference: paper PMC2724550, “Citrus auraptene suppresses cyclin D1 and significantly delays N-methyl nitrosourea induced mammary carcinogenesis in female Sprague-Dawley rats” (BMC Cancer, 2009)
